Columns and labels:
[1] = system: MDCK cells; assay: MDCK cell apoptosis, in situ cell death detection kit; format: cell-based, Canine; conditions: 10 μM, 72 h
Method: Apoptosis was measured using the in situ cell death detection kit (ROCHE Diagnostics, Indianapolis, Ind.). MDCK cells were seeded on 8-chamber polystyrene tissue culture-treated glass slides and incubated with compounds T08 and G07 for 72 h at 5, 10 or 20 μM. The assay was performed according to manufacturer's instructions. Five microscopic fields were analyzed per condition. The apoptosis index was calculated as the percentage of nucleus-stained cells.

[2] = HPLC/MS measurement of inhibitor concentration in urine after subcutaneous administration; format: in vivo, mouse; conditions: 4 times daily for 3 days, 5 mg/kg/day; for concentration at 1 h: 1 hour after final dosing; for concentration at 5 h: 5 hour after final dosing
Method: CFTR inhibitors (5-10 mg/kg/day) or saline DMSO vehicle control (0.05 mL/injection) were administrated by subcutaneous injection on the backs of neonatal mice four times a day for 3 or 7 days using a 1 cc insulin syringe, beginning at age 2 days (11 mice per group). Pkd1^flox/+; Ksp-Cre or Pkd1^flox/+ mice from the same litter were used as controls. During the treatment period, control and Pkd1^flox/−; Ksp-Cre mice, with or without CFTR inhibitor treatment, were indistinguishable in their activity and behavior. Body weight was measured at day 5 (3 days after treatment), at which time there was no difference in body weight in any of the mouse groups. Blood and urine samples were collected for measurements of CFTR inhibitor concentration and renal function. Kidneys were removed and weighed, and fixed for histological examination or homogenized for determination of CFTR inhibitor content.
For high-performance liquid chromatography/mass spectrometry (HPLC/MS) analysis of CFTR inhibitor concentration, kidneys were homogenized in 50-100 μl of PBS for 5 min using an EPPENDORF pellet pestle homogenizer. The homogenate was mixed with an equal volume of chilled acetonitrile to precipitate proteins. After centrifugation at 5000×g for 10 min the supernatant was evaporated under nitrogen, and the residue was dissolved in eluent (50% CH3CN/20 mM NH4OAc). Urine samples were directly diluted 10-fold with eluent. Reversed-phase HPLC separations were carried out using a WATERS C18 column (2.1×100 mm, 2.5 μm particle size) equipped with a solvent delivery system (WATERS model 2690, Milford, Mass.). The solvent system consisted of a linear gradient from 20% CH3CN/20 mM NH4OAc to 95% CH3CN/20 mM NH4OAc, run over 20 min, followed by 5 min at 95% CH3CN/20 mM NH4OAc (0.2 mL/min flow rate). Mass spectra were acquired on an Alliance HT 2790+ZQ mass spectrometer using negative ion detection, scanning from 150 to 1500 Da. The electrospray ion source parameters were: capillary voltage 3.2 kV (negative ion mode) or 3.5 kV (positive ion mode), cone voltage 37 V, source temperature 120° C., desolvation temperature 250° C., cone gas flow 25 L/h, and dessolvation gas flow 350 L/h.
Concentrations were measured to establish dosing to give sustained concentrations in kidney/urine of >1 μM, where CFTR is inhibited. Kidney and urine samples were obtained from mice after 4 times daily subcutaneous administration for 3 days at 5 mg/kg/day, a dose regimen determined from preliminary studies. Urinary concentrations were measured at 1 and 5 hour after the final dosing. For tetrazolo-CFTRinh-172, urine concentrations were 3.3 and 3.6 μM at 1 and 5 hour, respectively. The urine concentrations of Ph-GlyH-101 were 4.3 and 5.8 μM. […] These concentrations are several-fold greater than the IC50 for CFTR inhibition.

[3] = system: MDCK cells; assay: MDCK cell cyst model of polycystic kidney disease; format: cell-based, Canine; conditions: for effect on MDCK cyst enlargement (in words): 1 μM
From the text: An MDCK cell model of polycystic kidney disease was used to screen CFTR inhibitors of the thiazolidinone and glycine hydrazide classes for reducing cyst formation and expansion. […] Culture of MDCK cells in three-dimensional collagen gels produces a polarized, single-layer, thinned epithelium surrounding a fluid-filled space, apical […] microvilli, a solitary cilium, and apical tight junctions (see, e.g., McAteer et al., Scan Elect Microsc (Pt 3): 1135-1150, 1986; McAteer et al., Scanning Microsc 2: 1739-1763, 1988; and Taide et al., Eur J Clin Invest 26: 506-513, 1996).
Type I MDCK cells (ATCC No. CCL-34) were cultured at 37° C. in a humidified 95% air/5% CO2 atmosphere in a 1:1 mixture of Dulbecco's modified Eagle's medium (DMEM) and Ham's F-12 nutrient medium supplemented with 10% fetal bovine serum (Hyclone), 100 U/mL penicillin and 100 μg/mL streptomycin. To generate cysts, four hundred MDCK cells were suspended in 0.4 ml of ice-cold Minimum Essential Medium containing 2.9 mg/mL collagen (PuRECOL, Inamed Biomaterials, Fremont Calif.), 10 mM HEPES, 27 mM NaHCO3, 100 U/mL penicillin and 100 μg/mL streptomycin (pH 7.4). The cell suspension was plated onto 24-well plates. After gelation, 1.5 mL of MDCK cell medium containing 10 μM forskolin was added to each well and plates were maintained at 37° C. in a 5% CO2 humidified atmosphere.
The compound structures together with their approximate CFTR inhibition potencies (expressed as IC50 values) are provided in FIGS. 3 and 4. Indicated IC50 values for T01-07, T10, T12-14 were reported by Ma et al. (J Clin Invest 110: 1651-1658 (2002)). IC50 values for T08, T11, and T16 were determined by short-circuit analysis performed according to methods described herein. Indicated IC50 values for G01-05, G8-16 were reported by Sonawane et al. (FASEB J. 20: 130-132 (2006); Sonawane et al., Gastroenterology 132:1234-44 (2007)). IC50 values for G06 and G07 were determined by short-circuit current analysis performed according to methods described herein.
Medium containing forskolin and test compounds was changed every 12 h. At day 6, cysts (with diameters >50 μm) and non-cyst cell colonies were counted by phase-contrast light microscopy at 20× magnification (546 nm monochromatic illumination) using a Nikon TE 2000-S inverted microscope. In some experiments, compounds were added to medium in the continued presence of forskolin from day 4 after seeding and the medium containing forskolin and compounds was changed every 12 h for 8 days. Micrographs showing the same cysts in collagen gels (identified by markings on plates) were obtained every 2 days. For determination of cyst growth, cyst diameters were measured using Image J software. At least 10 cysts/well and 3 wells/group were measured for each condition.

Row | Compound | MDCK cell apoptosis (in words) [1] | concentration at 1 h ([2]; C57BL/6, mouse, urine, sc) | concentration at 5 h ([2]; C57BL/6, mouse, urine, sc) | effect on MDCK cyst enlargement (in words) [3] | effect on MDCK cyst enlargement/formation (in words) ([3]; 10 μM) | inhibition at 10 µM ([3]; Canis lupus familiaris, MDCK, 10 μM, forskolin 10 μM, cyst diameter, read-out: inhibition of cyst growth) | concentration at 1 h [2] | concentration at 5 h [2]
1 | O=C1/C(=C/c2ccc(-c3nn[nH]n3)cc2)SC(=S)N1c1cccc(C(F)(F)F)c1 [Compound 6, (Z)-5-(4-(1H-tetrazol-5-yl)benzylidene)-2-thioxo-3-(3-(trifluoromethyl)phenyl)thiazolidin-4-one] | did not cause MDCK cell apoptosis | 3.3 µM | 3.6 µM |  |  |  |  | 
2 | O=C1/C(=C/c2ccc(-c3nnn[nH]3)cc2)SC(=S)N1c1cccc(C(F)(F)F)c1 [Compound 6, (Z)-5-(4-(1H-tetrazol-5-yl)benzylidene)-2-thioxo-3-(3-(trifluoromethyl)phenyl)thiazolidin-4-one] |  |  |  | strongly inhibited cyst enlargement | slowed cyst enlargement | > 70% |  | 
3 | N-2-naphthalenyl-2-hydroxyethyl-[(3,5-dibromo-2,4-dihydroxyphenyl)methylene]phenylglycinehydrazide [Compound G07] | did not cause MDCK cell apoptosis |  |  | strongly inhibited cyst enlargement |  |  | 4.3 µM | 5.8 µM

— US20110105565A1, “WATER SOLUBLE SMALL MOLECULE INHIBITORS OF THE CYSTIC FIBROSIS TRANSMEMBRANE CONDUCTANCE REGULATOR” (THE REGENTS OF THE UNIVERSITY OF CALIFORNIA, priority 2008, published 2011)
